Measured values taken from US20240025946A1, “Cyclic Tetrapeptides and Metal Complexes Thereof” (priority 2020, published 2024).
Where “and” joins values, the source holds several entries; their conditions need not be identical. Identical values can stand only once.

Experiments:
DH5α E. coli = assay: In vivo recovery test: Pb detoxification of poisoned bacteria, colony counting; type: cell-based; conditions: highest concentration 120 mM (10 equiv.); Pb(NO3)2 12 mM; vs poisoned untreated cells; mean
Protocol: (§1) Desalted peptides were then assessed for their ability to detoxify Pb (FIGS. 2a-d). The inventors designed two assays for rapid and reliable screening of potential CAs both in vivo on bacteria and then in vitro on human cell culture. Briefly, DH5a or HT-29 cells were first exposed to Pb(NO3)2 slightly below the minimal inhibitory concentration and then treated with various concentrations of the investigated CA, ranging from 0.1 to 10 equivalents. The viability of the cells was determined by colony counting or by crystal violet (Feoktistova et al, 2016), for the bacteria and the human cells, respectively, and was compared to poisoned cells that were not treated with any CA as the negative control. […] On the other hand, testing the compounds on human cells cannot be performed with insoluble compounds but is more relevant for medicinal purposes.
HRMS (ESI) m/z calculated for C16H26N4O4SNa^+ [M+Na]^+ 427.14442; found: 427.14447 In vivo recovery tests A single colony of DH5a E. coli WT cells was grown overnight at 37° C. and 220 rpm in Tris Minimal Medium (TMM, pH 6.0; 5 mL) without antibiotics. The culture was then diluted to an OD600 of 0.03 with additional TMM to a total volume of 5 mL, and its OD600 was monitored. Upon cell density of 0.25 (which was achieved after 3-5 h), 1 mL of the culture was transferred into a cell culture tube and was labeled as the positive control. To additional 3 mL of the culture, 36 μL of Pb(NO3)2 1 M were added (final concentration of 12 mM). Both cultures were shaken at 37° C. and 220 rpm for an additional 5 h.
Aqueous stock solutions of each CA were plated on freshly prepared agar-LB plates such that the final concentration of each compound is equal to 0.5, 1, 2, 5, and 10 equivalents, compared to the amount of Pb(NO3)2 in 50 μL pre-toxified culture. The stock solutions were prepared such that plating and equally spreading 30 μL of each solution will provide the desired amount of CA. To additional two plates, 30 μL of H2O was added.
50 μL of the pre-toxified culture were homogenously spread to each CA-containing plate, 5 h after adding the metal to the culture. The Pb-containing culture was also plated on one of the two H2O-containing plates and was labeled as the negative control. Lastly, 50 μL of the non-toxified culture were platted on the second H2O-containing plate and was labeled as positive control. All plates (positive and negative control and five plates for each examined compound) were then incubated at 37° C. overnight. The plates were then imaged, and the colonies were counted (with Vilber Quantum Visualization System). The recovery of each concentration of CA was calculated according to equation 1: […]
#CAx—number of colonies of pre-toxified culture in a plate containing X mM of CA
#NEG—number of colonies of pre-toxified culture in a plate containing no CA
(§2) Each experiment was performed on three independent occasions. Values are mean±SD of >3 repeats each performed in triplicate.

HT-29 cells [1] = assay: In vitro recovery test: Pb detoxification of poisoned human cells, crystal violet; type: cell-based; conditions: highest concentration 10 mM (5 equiv.); Pb(NO3)2 2 mM; vs poisoned untreated cells; mean, SD
Protocol: as §1
96-well plates were prepared such that every well contains 10,000 cells in 100 μL medium, and the cells were allowed to adhere overnight. To all wells but the positive control, 10 μL of 22 mM Pb(NO3)2 were added (final concentration 2 mM). 10 μL of H2O was added to the positive control wells. 60 min after addition of metal, 10 μL of each solution of the examined CA (2.4, 6, 12, 24, 48, and 120 mM) were added to reach final concentrations of 0.2, 0.5, 1, 2, 4, and 10 mM (which are 0.1, 0.25, 0.5, 1, 2, and 5 equivalents, respectively). To the positive control wells containing no metal and the negative control wells containing metal but no CA, 10 μL of H2O were added. Each condition was performed in triplicates. The plates were incubated at 37° C. and 5% CO2 for an additional 23 h, after which the medium was removed, washed with fresh medium and 50 μL of crystal violet solution (0.5% crystal violet powder in 20 mL MeOH and 80 mL H2O) to each well and the plates were gently shaken (60 rpm) for 20 min. The plates were then washed with H2O until no more unbound dye was observed and allowed to dry overnight. 200 μL of MeOH were added to each well, and the plates were gently shaken (60 rpm) for 20 min, after which their absorbance at 560 nm was read with a plate reader. The recovery of each concentration of CA was calculated according to equation 2:
(§3) A[CAx]—absorbance of the pre-toxified well in the presence of X mM of CA
(§4) A[blank]—absorbance of blank wells (contain nothing)
A[NEG]—absorbance of the pre-toxified well that contains no CA
as §2

HT-29 cells [2] = assay: In vitro toxicity test, crystal violet; type: cell-based, human; conditions: HT-29, 24 h; for IC50: concentration at 50% viability, mean (SD), n.d. = not detected as it is too high
Protocol: 96-well plates were prepared such that every well contains 10,000 cells in 100 μL medium, and the cells were allowed to adhere overnight.
To all wells but the positive control, 10 μL of each solution of the examined CA (2.4, 6, 12, 24, 48, and 120 mM) were added to reach final concentrations of 0.2, 0.5, 1, 2, 4, and 10 mM. To the positive control wells, 10 μL of H2O was added. Each condition was performed in triplicates. The plates were incubated at 37° C. and 5% CO2 for 24 h, after which the medium was removed, washed with fresh medium and 50 μL of crystal violet solution (0.5% crystal violet powder in 20 mL MeOH and 80 mL H2O) to each well and the plates were gently shaken (60 rpm) for 20 min. The plates were then washed with H2O until no more unbound dye was observed and allowed to dry overnight. 200 μL of MeOH were added to each well, and the plates were gently shaken (60 rpm) for 20 min, after which their absorbance at 560 nm was read with a plate reader. The toxicity of each concentration of CA was calculated according to equation 3:
as §3, §4
A[POS]—absorbance of well that contains no CA
as §2

male mice (C57BL/6) = assay: Pb-poisoned mice: blood lead level and urinary Pb by ICP-MS; type: in vivo; conditions: 30 mg kg^−1 day^−1, days 10-16; for BLL: blood on day 18, eight mice; for Urinary Pb (ppm): urine on day 18
Protocol: Peptide 8a was then tested in mice. 40 male mice (C57BL/6) aged 6-8 weeks were provided with 20 mM Pb(OAc)2 solution as the sole water supply for seven days (days 1-7). This poisoning route mimics chronic exposure in humans. Two days after returning to clean water (day 9), they were randomly divided into five groups of eight mice. They received a single treatment per day for seven days (days 10-16) of either CaNa2EDTA, DMSA, or 8a at a concentration of 30 mg kg^−1 except for group 1 that served as the negative control (Table 3).
Blood samples (100 μL) were collected before dosing the mice on days 10-15 and on day 18, which is two days after the last dosing and the day by which the experiment was terminated. Urine was also collected from 34 animals on day 18 and was kept frozen until analysis.

O=C(O)C(S)C(S)C(=O)O (stereo not drawn) [DMSA, dimercaptosuccinic acid]
Recovery DH5α (%) (DH5α E. coli): 165%
Recovery HT-29 (%) (HT-29 cells [1]): 110±10% and 110%
IC50 (HT-29 cells [2]; Homo sapiens): 3.7 mM
inhibition at 10000 µM (HT-29 cells [2]; Homo sapiens, inhibition at the highest concentration (10 mM), mean, SD, read-out: Toxicity Maximal inhibition (%)): 77%
BLL (male mice (C57BL/6); Oral): 23.3 ± 2.3 µg/dL
Urinary Pb (ppm) (male mice (C57BL/6); Oral): 340 ± 28 ppm

O=C([O-])CN(CCN(CC(=O)[O-])CC(=O)[O-])CC(=O)[O-].[Ca+2].[Na+].[Na+] [Na2CaEDTA]
Recovery DH5α (%) (DH5α E. coli): 182%
Recovery HT-29 (%) (HT-29 cells [1]): 95±16% and 95%
IC50 (HT-29 cells [2]): 3.9 mM
Toxicity Maximal inhibition (%) (HT-29 cells [2]; inhibition at the highest concentration (10 mM), mean, SD): 63%
BLL (male mice (C57BL/6); IV): 25.7 ± 1.6 µg/dL
Urinary Pb (ppm) (male mice (C57BL/6); IV): 210 ± 30 ppm
